The target in experiment [1] is T1, JAK2 (Homo sapiens, UniProt O60674).
T1 construct: host or cells: baculovirus expression system
Nature of the experiment: Recombinant Human JAK2 Kinase Assay (TRF). The experiment is classed as biochemical. As to conditions: read-out: JAK2 Potency. Put shortly:
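TRF read-out: Eu-N1 PY100 anti-phosphotyrosine antibody detects product. Enzyme is baculovirus-expressed JAK2 at 15 ng/ml; substrate is a biotinyl 15-mer peptide bound to Neutravidin-coated wells. Buffer 20 mM HEPES pH 7.2, 0.2 μM ATP, 1 mM MnCl2, 0.1% BSA, 2.5% DMSO final; 20 min, RT.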

The target of experiment [2] is T2, ALK (Homo sapiens, UniProt Q9UM73).
T2 construct: host or cells: baculovirus expression system
Nature of the experiment: ALK Kinase Assay (ELISA/TRF, PLC-γ substrate). The experiment is classed as biochemical. The following applies: read-out: ALK Potency. Put shortly:
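IC50 values derive from percent inhibition plotted against log10 compound concentration and fitted to a variable-slope sigmoidal equation. The underlying reaction used 30 ng/ml ALK acting on immobilized PLC-γ (10 μg/mL in TBS) at 37° C for 15 minutes, read with Eu-N1 PT66 antibody.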
In general terms: In an ELISA, binding on a coated surface is turned into a signal by an enzyme label.

[3] abbreviates: JAK2 kinase inhibition, 0.2 μM ATP.
Where [4] appears, read: ALK kinase inhibition, 1 μM ATP.

Read-outs that look alike come from different tables or passages of the source. Bounds are passed on as bounds.

T1 sequence (O60674 whole entry): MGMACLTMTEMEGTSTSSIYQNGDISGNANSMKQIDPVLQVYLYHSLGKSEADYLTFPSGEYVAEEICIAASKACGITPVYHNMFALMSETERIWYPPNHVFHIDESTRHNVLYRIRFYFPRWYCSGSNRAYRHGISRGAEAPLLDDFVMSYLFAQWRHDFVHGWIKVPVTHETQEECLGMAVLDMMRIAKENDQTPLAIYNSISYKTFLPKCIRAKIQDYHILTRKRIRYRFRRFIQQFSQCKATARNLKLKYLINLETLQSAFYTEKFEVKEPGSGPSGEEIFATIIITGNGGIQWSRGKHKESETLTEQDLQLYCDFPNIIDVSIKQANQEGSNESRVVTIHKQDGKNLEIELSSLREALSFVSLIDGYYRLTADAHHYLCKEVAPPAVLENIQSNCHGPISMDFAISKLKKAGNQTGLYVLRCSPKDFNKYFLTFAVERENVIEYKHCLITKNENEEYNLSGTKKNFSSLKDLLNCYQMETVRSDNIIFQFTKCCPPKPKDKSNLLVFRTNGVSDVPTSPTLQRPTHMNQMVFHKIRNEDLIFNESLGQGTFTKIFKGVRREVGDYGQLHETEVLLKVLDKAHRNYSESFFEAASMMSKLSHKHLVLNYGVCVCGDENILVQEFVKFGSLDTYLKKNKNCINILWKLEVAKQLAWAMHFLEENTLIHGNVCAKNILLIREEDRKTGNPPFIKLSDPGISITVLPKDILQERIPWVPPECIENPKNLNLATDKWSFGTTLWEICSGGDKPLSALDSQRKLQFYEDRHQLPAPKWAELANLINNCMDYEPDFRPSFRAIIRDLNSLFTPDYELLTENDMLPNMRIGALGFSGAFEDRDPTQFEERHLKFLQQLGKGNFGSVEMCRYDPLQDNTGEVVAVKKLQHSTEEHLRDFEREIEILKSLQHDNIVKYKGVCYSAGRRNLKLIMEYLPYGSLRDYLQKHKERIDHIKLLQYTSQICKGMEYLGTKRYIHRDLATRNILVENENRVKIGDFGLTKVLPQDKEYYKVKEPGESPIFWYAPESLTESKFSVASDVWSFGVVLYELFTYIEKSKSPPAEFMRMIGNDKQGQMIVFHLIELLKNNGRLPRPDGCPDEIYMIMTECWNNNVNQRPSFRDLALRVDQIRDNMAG
T2 sequence (Q9UM73 19-1620): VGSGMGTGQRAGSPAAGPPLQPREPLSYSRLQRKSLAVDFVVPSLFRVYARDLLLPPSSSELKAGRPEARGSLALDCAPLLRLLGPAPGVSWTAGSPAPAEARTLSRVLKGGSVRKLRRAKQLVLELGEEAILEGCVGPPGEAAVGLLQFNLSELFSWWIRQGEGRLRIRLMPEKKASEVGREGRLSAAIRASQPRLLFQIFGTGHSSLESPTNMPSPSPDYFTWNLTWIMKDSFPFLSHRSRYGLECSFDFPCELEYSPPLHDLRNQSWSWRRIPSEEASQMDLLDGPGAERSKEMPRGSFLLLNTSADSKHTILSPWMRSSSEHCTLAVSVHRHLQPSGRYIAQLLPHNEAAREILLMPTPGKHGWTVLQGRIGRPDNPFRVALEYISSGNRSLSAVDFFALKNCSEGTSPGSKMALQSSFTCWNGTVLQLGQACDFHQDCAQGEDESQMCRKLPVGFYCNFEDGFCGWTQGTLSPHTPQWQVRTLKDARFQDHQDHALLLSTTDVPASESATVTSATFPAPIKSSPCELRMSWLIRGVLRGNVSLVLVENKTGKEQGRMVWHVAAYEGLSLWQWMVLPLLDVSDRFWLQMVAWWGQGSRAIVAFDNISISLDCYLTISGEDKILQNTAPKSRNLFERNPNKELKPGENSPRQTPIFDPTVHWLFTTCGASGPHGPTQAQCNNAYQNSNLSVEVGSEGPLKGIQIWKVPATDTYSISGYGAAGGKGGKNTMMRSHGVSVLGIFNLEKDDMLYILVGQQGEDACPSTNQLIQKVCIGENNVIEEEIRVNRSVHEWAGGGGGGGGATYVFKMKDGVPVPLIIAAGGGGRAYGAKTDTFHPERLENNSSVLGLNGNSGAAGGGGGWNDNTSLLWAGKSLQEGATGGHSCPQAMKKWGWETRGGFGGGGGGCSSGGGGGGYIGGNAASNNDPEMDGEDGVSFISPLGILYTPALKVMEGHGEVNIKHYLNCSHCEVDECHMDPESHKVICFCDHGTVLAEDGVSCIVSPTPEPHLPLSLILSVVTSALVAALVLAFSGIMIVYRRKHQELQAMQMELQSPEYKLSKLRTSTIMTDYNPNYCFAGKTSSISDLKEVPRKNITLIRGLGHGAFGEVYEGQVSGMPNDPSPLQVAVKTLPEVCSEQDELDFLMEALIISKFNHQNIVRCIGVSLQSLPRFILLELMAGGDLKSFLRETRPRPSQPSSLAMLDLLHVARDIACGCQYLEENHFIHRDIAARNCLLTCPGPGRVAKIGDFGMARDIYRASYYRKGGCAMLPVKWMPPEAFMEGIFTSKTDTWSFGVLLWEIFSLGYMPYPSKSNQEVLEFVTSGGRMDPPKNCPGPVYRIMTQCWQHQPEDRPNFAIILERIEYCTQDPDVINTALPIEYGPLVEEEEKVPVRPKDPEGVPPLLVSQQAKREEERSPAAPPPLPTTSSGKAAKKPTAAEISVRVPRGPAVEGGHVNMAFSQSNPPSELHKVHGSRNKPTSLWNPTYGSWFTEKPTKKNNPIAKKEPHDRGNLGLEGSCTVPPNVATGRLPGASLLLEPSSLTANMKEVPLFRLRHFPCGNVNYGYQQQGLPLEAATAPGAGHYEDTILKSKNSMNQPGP

Turning to `CN(c1ccccc1-c1ccc2cnc(Nc3ccc4[nH]ncc4c3)nn12)S(C)(=O)=O` [Example 1338, N-{2-[2-(1H-Indazol-5-ylamino)-pyrrolo[2,1-f][1,2,4]triazin-7-yl]-phenyl}-N-methyl-methanesulfonamide], the figures for the IC50 in experiment [1] (setting [3]) and in experiment [2] (setting [4]) were less than 100 nM and 100 to 1000 nM, respectively.

Turning to `CN1CCN(c2ccc(Nc3ncc4ccc(-c5cccc(CCC#N)c5)n4n3)cc2)CC1` [Example 1142, 3-(3-{2-[4-(4-Methyl-piperazin-1-yl)-phenylamino]-pyrrolo[2,1-f][1,2,4]triazin-7-yl}-phenyl)-propionitrile], the IC50 in experiment [1] (setting [3]) and in experiment [2] (setting [4]) was less than 100 nM in each case.

In the case of `Cc1cc(Nc2ncc3ccc(-c4ccc(S(C)(=O)=O)cc4)n3n2)ccc1C1CCN(CC(N)=O)CC1` [Example 949, 2-(4-{4-[7-(4-Methanesulfonyl-phenyl)-pyrrolo[2,1-f][1,2,4]triazin-2-ylamino]-2-methyl-phenyl}-piperidin-1-yl)-acetamide], the IC50 in experiment [1] (setting [3]) and in experiment [2] (setting [4]) was less than 100 nM each time.

With `COc1cc(C2CCN(CCF)CC2)ccc1Nc1ncc2ccc(-c3ccccc3OC)n2n1` [Example 791, {4-[1-(2-Fluoro-ethyl)-piperidin-4-yl]-2-methoxy-phenyl}-[7-(2-methoxy-phenyl)-pyrrolo[2,1-f][1,2,4]triazin-2-yl]-amine], the IC50 in experiment [1] (setting [3]) is 100 to 1000 nM; in experiment [2] (setting [4]), less than 100 nM.

For the compound `CS(=O)(=O)Nc1cccc(-c2ccc3cnc(Nc4cnn(CCN5CCOCC5)c4)nn23)c1` [Example 1195, N-(3-{2-[1-(2-Morpholin-4-yl-ethyl)-1H-pyrazol-4-ylamino]-pyrrolo[2,1-f][1,2,4]triazin-7-yl}-phenyl)-methanesulfonamide], the IC50 in experiment [1] (setting [3]) was less than 100 nM; in experiment [2] (setting [4]) it was 1000 to 10000 nM.

Turning to `CN(c1ccccc1-c1ccc2cnc(Nc3ccc(N4CCOCC4)cc3F)nn12)S(C)(=O)=O` [Example 386, N-{2-[2-(2-Fluoro-4-morpholin-4-yl-phenylamino)-pyrrolo[2,1-f][1,2,4]triazin-7-yl]-phenyl}-N-methyl-methanesulfonamide], the values for the IC50 in experiment [1] (JAK2 Kinase Inhibition) and in experiment [2] (ALK Kinase Inhibition) were less than 100 nM and 100 to 1000 nM, respectively.

As to `COc1ccc(-c2ccc3cnc(Nc4ccc5[nH]c(=O)[nH]c5c4)nn23)cn1` [Example 1309, 5-[7-(6-Methoxy-pyridin-3-yl)-pyrrolo[2,1-f][1,2,4]triazin-2-ylamino]-1,3-dihydro-benzimidazol-2-one], the figures for the IC50 in experiment [1] (setting [3]) and in experiment [2] (setting [4]) were less than 100 nM and 1000 to 10000 nM, respectively.

With `COc1ccc(-c2ccc3cnc(Nc4ccc(OCCN5CCOCC5)cc4)nn23)cn1` [Example 1103, [7-(6-Methoxy-pyridin-3-yl)-pyrrolo[2,1-f][1,2,4]triazin-2-yl]-[4-(2-morpholin-4-yl-ethoxy)-phenyl]-amine], the values for the IC50 in experiment [1] (setting [3]) and in experiment [2] (setting [4]) were less than 100 nM and 100 to 1000 nM, respectively.

On to `CN1CCN(C(=O)c2ccc(Nc3ncc4ccc(-c5cccnc5)n4n3)cc2)CC1` [Example 321, (4-Methyl-piperazin-1-yl)-[4-(7-pyridin-3-yl-pyrrolo[2,1-f][1,2,4]triazin-2-ylamino)-phenyl]-methanone], for which the values for the IC50 in experiment [1] (JAK2 Kinase Inhibition) and in experiment [2] (ALK Kinase Inhibition) were less than 100 nM and 100 to 1000 nM, respectively.

As for `Cn1cc(-c2ccc3cnc(Nc4cccc(N5CCOCC5)c4)nn23)cn1` [Example 198, [7-(1-Methyl-1H-pyrazol-4-yl)-pyrrolo[2,1-f][1,2,4]triazin-2-yl]-(3-morpholin-4-yl-phenyl)-amine], the IC50 in experiment [1] (JAK2 Kinase Inhibition) is less than 100 nM; in experiment [2] (ALK Kinase Inhibition) it was 100 to 1000 nM.

Take `COc1cc(N2CCC(N3CCOCC3)CC2)ccc1Nc1ncc2ccc(-c3ccc(F)cc3OC)n2n1` [Example 510, [7-(4-Fluoro-2-methoxy-phenyl)-pyrrolo[2,1-f][1,2,4]triazin-2-yl]-[2-methoxy-4-(4-morpholin-4-yl-piperidin-1-yl)-phenyl]-amine]: the IC50 in experiment [1] (setting [3]) and in experiment [2] (setting [4]) was less than 100 nM each time.

Consider `CC(C)(C)NS(=O)(=O)c1cccc(-c2ccc3cnc(Nc4ccc(N5CCN(CC(N)=O)CC5)c(F)c4)nn23)c1` [Example 1407, 2-(4-{4-[7-(3-tert-Butylsulfamoyl-phenyl)-pyrrolo[2,1-f][1,2,4]triazin-2-ylamino]-2-fluoro-phenyl}-piperazin-1-yl)-acetamide], for which the IC50 is less than 100 nM in experiment [1] (JAK2 Kinase Inhibition) and 100 to 1000 nM in experiment [2] (ALK Kinase Inhibition).

Consider `COc1ccc(-c2ccc3cnc(Nc4cccc(C5CN(C)CCN5C)c4)nn23)cn1` (stereo not shown) [Example 1519, [3-(1,4-Dimethyl-piperazin-2-yl)-phenyl]-[7-(6-methoxy-pyridin-3-yl)-pyrrolo[2,1-f][1,2,4]triazin-2-yl]-amine], for which the IC50 in experiment [1] (JAK2 Kinase Inhibition) is less than 100 nM; in experiment [2] (ALK Kinase Inhibition), 1000 to 10000 nM.

With `COc1ccc(-c2ccc3cnc(Nc4cccc(C5(O)CCNCC5)c4)nn23)cn1` [Example 1551, 4-{3-[7-(6-Methoxy-pyridin-3-yl)-pyrrolo[2,1-f][1,2,4]triazin-2-ylamino]-phenyl}-piperidin-4-ol], the IC50 was less than 100 nM in experiment [1] (JAK2 Kinase Inhibition) and 100 to 1000 nM in experiment [2] (ALK Kinase Inhibition).

For the compound `COc1ccccc1-c1ccc2cnc(Nc3cc(OC)c(OC)c(OC)c3)nn12` [Example 142, [7-(2-Methoxy-phenyl)-pyrrolo[2,1-f][1,2,4]triazin-2-yl]-(3,4,5-trimethoxy-phenyl)-amine], the IC50 in experiment [1] (JAK2 Kinase Inhibition) is less than 100 nM; in experiment [2] (ALK Kinase Inhibition) it was 100 to 1000 nM.

Consider `CN1CCN(c2ccc(Nc3ncc4c(-c5ccc(F)cc5)ccn4n3)cc2)CC1` [Example 726, [5-(4-Fluoro-phenyl)-pyrrolo[2,1-f][1,2,4]triazin-2-yl]-[4-(4-methyl-piperazin-1-yl)-phenyl]-amine], for which the IC50 in experiment [1] (setting [3]) is more than 10000 nM; in experiment [2] (setting [4]) it was 1000 to 10000 nM.

Consider `COc1cc(N2CCC(N3CCOCC3)CC2)ccc1Nc1ncc2ccc(-c3cccc(CCC#N)c3)n2n1` [Example 1159, 3-(3-{2-[2-Methoxy-4-(4-morpholin-4-yl-piperidin-1-yl)-phenylamino]-pyrrolo[2,1-f][1,2,4]triazin-7-yl}-phenyl)-propionitrile], for which the IC50 in experiment [1] (setting [3]) and in experiment [2] (setting [4]) was less than 100 nM in each case.

Turning to `CN1CCN(c2ccc(Nc3ncc4ccc(-c5ccccc5OCC(=O)OC(C)(C)C)n4n3)cc2)CC1` [Example 1173, (2-{2-[4-(4-Methyl-piperazin-1-yl)-phenylamino]-pyrrolo[2,1-f][1,2,4]triazin-7-yl}-phenoxy)-acetic acid tert-butyl ester], the IC50 is less than 100 nM in experiment [1] (setting [3]) and 1000 to 10000 nM in experiment [2] (setting [4]).

Take `COc1ccccc1-c1ccc2cnc(Nc3cnn(CCN4CCOCC4)c3)nn12` [Example 1190, [7-(2-Methoxy-phenyl)-pyrrolo[2,1-f][1,2,4]triazin-2-yl]-[1-(2-morpholin-4-yl-ethyl)-1H-pyrazol-4-yl]-amine]: the IC50 in experiment [1] (setting [3]) is less than 100 nM; in experiment [2] (setting [4]) it was 1000 to 10000 nM.

Turning to `N#CCCc1cccc(-c2ccc3cnc(Nc4ccc(N5CCN(CCO)CC5)cc4)nn23)c1` [Example 1151, 3-[3-(2-{4-[4-(2-Hydroxy-ethyl)-piperazin-1-yl]-phenylamino}-pyrrolo[2,1-f][1,2,4]triazin-7-yl)-phenyl]-propionitrile], the IC50 in experiment [1] (setting [3]) and in experiment [2] (setting [4]) was less than 100 nM throughout.

For the compound `Cn1cc(-c2ccc3cnc(Nc4cccc(NS(C)(=O)=O)c4)nn23)cn1` [Example 1389, N-{3-[7-(1-Methyl-1H-pyrazol-4-yl)-pyrrolo[2,1-f][1,2,4]triazin-2-ylamino]-phenyl}-methanesulfonamide], the IC50 was less than 100 nM in experiment [1] (JAK2 Kinase Inhibition) and 1000 to 10000 nM in experiment [2] (ALK Kinase Inhibition).

Turning to `CC(=O)Nc1cc(Nc2ncc3ccc(-c4cccc(S(=O)(=O)NC(C)(C)C)c4)n3n2)ccc1C` [Example 1398, N-{5-[7-(3-tert-Butylsulfamoyl-phenyl)-pyrrolo[2,1-f][1,2,4]triazin-2-ylamino]-2-methyl-phenyl}-acetamide], the figures for the IC50 in experiment [1] (JAK2 Kinase Inhibition) and in experiment [2] (ALK Kinase Inhibition) were less than 100 nM and 100 to 1000 nM, respectively.

Take `COc1ccc(-c2ccc3cnc(Nc4ccc(N5CCN(C)CC5)cc4)nn23)cc1` [Example 421, [7-(4-Methoxy-phenyl)-pyrrolo[2,1-f][1,2,4]triazin-2-yl]-[4-(4-methyl-piperazin-1-yl)-phenyl]-amine]: the IC50 was less than 100 nM in experiment [1] (JAK2 Kinase Inhibition) and 100 to 1000 nM in experiment [2] (ALK Kinase Inhibition).

On to `COCCN1CC[C@](O)(c2ccc(Nc3ncc4ccc(-c5ccccc5N(C)S(C)(=O)=O)n4n3)c(OC)c2)[C@@H](O)C1` (racemic) [Example 846, (±)-N-[2-(2-{4-[(3S,4S)-3,4-Dihydroxy-1-(2-methoxy-ethyl)-piperidin-4-yl]-2-methoxy-phenylamino}-pyrrolo[2,1-f][1,2,4]triazin-7-yl)-phenyl]-N-methyl-methanesulfonamide], for which the IC50 in experiment [1] (setting [3]) was 100 to 1000 nM; in experiment [2] (setting [4]), less than 100 nM.

As for `COc1cc(N2CCCN(C3CCN(CCO)CC3)CC2)ccc1Nc1ncc2ccc(-c3ccccc3OC)n2n1` [Example 800, 2-[4-(4-{3-Methoxy-4-[7-(2-methoxy-phenyl)-pyrrolo[2,1-f][1,2,4]triazin-2-ylamino]-phenyl}-[1,4]diazepan-1-yl)-piperidin-1-yl]-ethanol], the values for the IC50 in experiment [1] (setting [3]) and in experiment [2] (setting [4]) were 100 to 1000 nM and less than 100 nM, respectively.

Take `CN(c1cccc(-c2ccc3cnc(Nc4ccc(N5CCOCC5)cc4)nn23)c1)S(C)(=O)=O` [Example 420, N-Methyl-N-{3-[2-(4-morpholin-4-yl-phenylamino)-pyrrolo[2,1-f][1,2,4]triazin-7-yl]-phenyl}-methanesulfonamide]: the IC50 in experiment [1] (JAK2 Kinase Inhibition) was less than 100 nM; in experiment [2] (ALK Kinase Inhibition), 1000 to 10000 nM.

Source of the values: patent publication US8471005B2 (Cephalon, Inc., priority 2008, dated 2013).
